Source: PubChem BioAssay (NCI)
“And” between values parts separate entries of the source, which are not always exact repeats. Equal values may be shown once.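 Dose response: 5 concentrations. Exposure: 48 h. Format: 96-well plates. Endpoint: linear interpolation; highest concentration if not reached. GI50 is the concentration that inhibits growth by half. At the TGI there is no net growth.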

Columns and labels:
Assay in all cases: growth of human tumour cells (NCI), 48 h
KM12 colon = test system: KM12 colon
DU-145 prostate = test system: DU-145 prostate
CCRF-CEM leukemia = test system: CCRF-CEM leukemia
SK-OV-3 ovarian = test system: SK-OV-3 ovarian
A549 NSCLC = test system: A549 NSCLC
K-562 leukemia = test system: K-562 leukemia
HCT-15 colon = test system: HCT-15 colon
OVCAR-8 ovarian = test system: OVCAR-8 ovarian
SK-MEL-5 melanoma = test system: SK-MEL-5 melanoma
SNB-19 CNS = test system: SNB-19 CNS
BT-549 breast = test system: BT-549 breast
HOP-92 NSCLC = test system: HOP-92 NSCLC
SK-MEL-2 melanoma = test system: SK-MEL-2 melanoma
HL-60(TB) leukemia = test system: HL-60(TB) leukemia
RPMI-8226 leukemia = test system: RPMI-8226 leukemia
HS 578T breast = test system: HS 578T breast
NCI-H522 lung = test system: NCI-H522 lung
UACC-257 melanoma = test system: UACC-257 melanoma
MDA-N = test system: MDA-N
SF-268 CNS = test system: SF-268 CNS
UACC-62 melanoma = test system: UACC-62 melanoma
HCC-2998 colon = test system: HCC-2998 colon
MOLT-4 leukemia = test system: MOLT-4 leukemia
SNB-75 CNS = test system: SNB-75 CNS
MDA-MB-435 = test system: MDA-MB-435
M14 melanoma = test system: M14 melanoma
OVCAR-4 ovarian = test system: OVCAR-4 ovarian
A498 renal = test system: A498 renal
CAKI-1 renal = test system: CAKI-1 renal
COLO 205 colon = test system: COLO 205 colon
ACHN renal = test system: ACHN renal
TK-10 renal = test system: TK-10 renal
SR leukemia = test system: SR leukemia
NCI-H460 lung = test system: NCI-H460 lung
OVCAR-3 ovarian = test system: OVCAR-3 ovarian
EKVX NSCLC = test system: EKVX NSCLC
NCI/ADR-RES ovarian = test system: NCI/ADR-RES ovarian
MCF7 breast = test system: MCF7 breast
UO-31 renal = test system: UO-31 renal
SF-295 CNS = test system: SF-295 CNS
IGROV1 ovarian = test system: IGROV1 ovarian
T-47D breast = test system: T-47D breast
OVCAR-5 ovarian = test system: OVCAR-5 ovarian
HCT-116 colon = test system: HCT-116 colon
786-0 renal = test system: 786-0 renal
LOX IMVI melanoma = test system: LOX IMVI melanoma
NCI-H23 lung = test system: NCI-H23 lung
SF-539 CNS = test system: SF-539 CNS
SK-MEL-28 melanoma = test system: SK-MEL-28 melanoma
PC-3 prostate = test system: PC-3 prostate
SN12C renal = test system: SN12C renal
NCI-H226 lung = test system: NCI-H226 lung
HT29 colon = test system: HT29 colon
MDA-MB-231 breast = test system: MDA-MB-231 breast
HOP-62 NSCLC = test system: HOP-62 NSCLC
SW-620 colon = test system: SW-620 colon
U251 CNS = test system: U251 CNS
MALME-3M melanoma = test system: MALME-3M melanoma
RXF 393 renal = test system: RXF 393 renal

COc1ccc(/C=C/C(=O)c2ccccc2)cc1OC
GI50 (KM12 colon): 6 µM
TGI (KM12 colon): 10.2 µM and > 100 µM
TGI (DU-145 prostate): 24.4 µM and 26.4 µM
GI50 (CCRF-CEM leukemia): 3.72 µM
GI50 (SK-OV-3 ovarian): 37.8 µM
TGI (SK-OV-3 ovarian): 29.5 µM and > 100 µM
GI50 (A549 NSCLC): 30.5 µM
TGI (A549 NSCLC): 47.7 µM and > 100 µM
GI50 (K-562 leukemia): 3.95 µM
TGI (K-562 leukemia): > 100 µM
GI50 (HCT-15 colon): 5.23 µM
TGI (HCT-15 colon): 34.9 µM and 24.8 µM
TGI (OVCAR-8 ovarian): 39.6 µM and 39.2 µM
GI50 (SK-MEL-5 melanoma): 14.5 µM
TGI (SK-MEL-5 melanoma): 31.4 µM and 27.9 µM
TGI (SNB-19 CNS): 24.6 µM and 26.7 µM
TGI (BT-549 breast): 37.5 µM and 35.3 µM
GI50 (HOP-92 NSCLC): 26.3 µM
TGI (HOP-92 NSCLC): 41 µM and 79.4 µM
TGI (SK-MEL-2 melanoma): 32.2 µM and 35.3 µM
GI50 (HL-60(TB) leukemia): 14.6 µM
TGI (HL-60(TB) leukemia): 61.2 µM and > 100 µM
GI50 (RPMI-8226 leukemia): 3.93 µM
TGI (RPMI-8226 leukemia): > 100 µM and 25.3 µM
GI50 (HS 578T breast): 42.3 µM
TGI (HS 578T breast): 65 µM and > 100 µM
GI50 (NCI-H522 lung): 4.18 µM
TGI (NCI-H522 lung): 31.5 µM and 19.6 µM
TGI (UACC-257 melanoma): 31.7 µM and 31.4 µM
TGI (MDA-N): 15.3 µM
GI50 (SF-268 CNS): 19.7 µM
TGI (SF-268 CNS): 36.7 µM and 64.9 µM
GI50 (UACC-62 melanoma): 11.7 µM
TGI (UACC-62 melanoma): 27.1 µM and 27.3 µM
GI50 (HCC-2998 colon): 14.2 µM
TGI (HCC-2998 colon): 33.2 µM and 28.6 µM
GI50 (MOLT-4 leukemia): 17.9 µM
TGI (MOLT-4 leukemia): > 100 µM
GI50 (SNB-75 CNS): 16.7 µM
TGI (SNB-75 CNS): 28.9 µM and 35.1 µM
GI50 (MDA-MB-435): 6.89 µM
TGI (MDA-MB-435): 14.6 µM and 25.2 µM
TGI (M14 melanoma): 30 µM and 29.6 µM
TGI (OVCAR-4 ovarian): 36.6 µM and 33.3 µM
TGI (A498 renal): 38.6 µM and 32.2 µM
GI50 (CAKI-1 renal): 14.1 µM
TGI (CAKI-1 renal): 38.2 µM and 35.6 µM
TGI (COLO 205 colon): 31.6 µM and 34.8 µM
TGI (ACHN renal): 29.4 µM and 28.5 µM
GI50 (TK-10 renal): 13.6 µM
TGI (TK-10 renal): 32 µM and 27.8 µM
TGI (SR leukemia): > 100 µM and 58.3 µM
GI50 (NCI-H460 lung): 14.3 µM
TGI (NCI-H460 lung): 32.5 µM and 37.5 µM
GI50 (OVCAR-3 ovarian): 7.38 µM
TGI (OVCAR-3 ovarian): 25.3 µM and 26.8 µM
GI50 (EKVX NSCLC): 17.7 µM
TGI (EKVX NSCLC): 28.7 µM and 35.6 µM
GI50 (NCI/ADR-RES ovarian): 8.33 µM
TGI (NCI/ADR-RES ovarian): > 100 µM and 93.1 µM
GI50 (MCF7 breast): 3.3 µM
TGI (MCF7 breast): 11.8 µM and 13.4 µM
TGI (UO-31 renal): 27.2 µM and 27.3 µM
GI50 (SF-295 CNS): 14.5 µM
TGI (SF-295 CNS): 32.9 µM and 34 µM
GI50 (IGROV1 ovarian): 15.4 µM
TGI (IGROV1 ovarian): 49.7 µM and 43.7 µM
GI50 (T-47D breast): 18.4 µM
TGI (T-47D breast): 48.7 µM and 60.8 µM
GI50 (OVCAR-5 ovarian): 21.4 µM
TGI (OVCAR-5 ovarian): 33.5 µM and 44.1 µM
GI50 (HCT-116 colon): 3.51 µM
TGI (HCT-116 colon): 20.2 µM and 14.2 µM
GI50 (786-0 renal): 14.6 µM
TGI (786-0 renal): 17.9 µM and 33.7 µM
GI50 (LOX IMVI melanoma): 3.32 µM
TGI (LOX IMVI melanoma): 28.1 µM and 14.6 µM
GI50 (NCI-H23 lung): 15.8 µM
TGI (NCI-H23 lung): 50.1 µM and 41.3 µM
GI50 (SF-539 CNS): 16.4 µM
TGI (SF-539 CNS): 25.7 µM and 36.1 µM
GI50 (SK-MEL-28 melanoma): 17.6 µM
TGI (SK-MEL-28 melanoma): 38.1 µM and 32 µM
GI50 (PC-3 prostate): 23.2 µM
TGI (PC-3 prostate): 25.1 µM and 82 µM
GI50 (SN12C renal): 13.1 µM
TGI (SN12C renal): 30.6 µM and 29 µM
GI50 (NCI-H226 lung): 16.4 µM
TGI (NCI-H226 lung): 53.6 µM and 32.3 µM
GI50 (HT29 colon): 3.86 µM
TGI (HT29 colon): 22.2 µM and 16.2 µM
TGI (MDA-MB-231 breast): 38.1 µM and 52.6 µM
GI50 (HOP-62 NSCLC): 19.3 µM
TGI (HOP-62 NSCLC): 31.1 µM and 43 µM
TGI (SW-620 colon): > 100 µM and 18.4 µM
GI50 (U251 CNS): 5.81 µM
TGI (U251 CNS): 21.9 µM and 18.1 µM
GI50 (MALME-3M melanoma): 18.7 µM
TGI (MALME-3M melanoma): 35.1 µM and 38 µM
TGI (RXF 393 renal): 48.2 µM and 27.6 µM
